According to patent US20060263802A1 (priority 2003, published 2006):

Tests used:
Assay type in all cases: binding
[1] = test system: human monoclonal antibody CR57
[2] = test system: human monoclonal antibody CRJA
[3] = test system: human monoclonal antibody CRJB
[4] = test system: human monoclonal antibody CRJB; remark: listed apart in the source
[5] = test system: human monoclonal antibody CRJA; remark: listed apart in the source
[6] = test system: human monoclonal antibody CR57; remark: listed apart in the source

Sequence	Binding of CR57 to linear peptide (PEPSCAN-ELISA signal) [1]	binding of antibody CR57 to linear peptide (PEPSCAN OD) [1]	strength of binding of CR57 (OD value compared with the other peptides / twice the average value) [1]	Binding of CRJA (10 μg/ml) to looped/cyclic peptide (PEPSCAN-ELISA) [2]	Binding of CRJB to linear peptide (PEPSCAN-ELISA signal) [3]	Binding of CRJB (10 μg/ml) to looped/cyclic peptide (PEPSCAN-ELISA) [4]	Binding of CRJA to linear peptide (PEPSCAN-ELISA signal) [5]	Binding of CR57 (10 μg/ml) to looped/cyclic peptide (PEPSCAN-ELISA) [6]	Binding of CRJA (10 μg/ml) to looped/cyclic peptide (PEPSCAN-ELISA signal) [2]	Binding of CRJB (10 μg/ml) to looped/cyclic peptide (PEPSCAN-ELISA signal) [4]	Binding of CR57 (10 μg/ml) to looped/cyclic peptide (PEPSCAN-ELISA signal) [6]	Binding of human monoclonal antibody CR57 to linear peptide (PEPSCAN-ELISA signal) [1]	Binding of CRJA to looped/cyclic peptide (PEPSCAN-ELISA signal) [2]	Binding of human monoclonal antibody CRJB to linear peptide (PEPSCAN-ELISA signal) [3]	Binding of CRJB to looped/cyclic peptide (PEPSCAN-ELISA signal) [4]	Binding of human monoclonal antibody CRJA to linear peptide (PEPSCAN-ELISA signal) [5]	Binding of CR57 to looped/cyclic peptide (PEPSCAN-ELISA signal) [6]
GACKLKLCGVLGLRL	123	bound	lower than twice the average value	54	134	79	64	73	–	–	–	–	–	–	–	–	–
SVIPLVHPLADPSTV	72	–	–	75	137	106	64	71	–	–	–	–	–	–	–	–	–
YKSLKGACKLKLCGV	80	–	–	71	112	82	79	96	–	–	–	–	–	–	–	–	–
VRKREECLDALESIM	58	–	–	101	181	66	111	105	–	–	–	–	–	–	–	–	–
GMSCDIFTNSRGKRA	54	–	–	–	120	–	71	–	51	78	79	–	–	–	–	–	–
IPEMQSSLLQQHMEL	89	–	–	54	128	83	60	66	–	–	–	–	–	–	–	–	–
RLMDGTWVAMQTSNE	100	–	–	82	113	89	99	96	–	–	–	–	–	–	–	–	–
LVNLHDFRSDEIEHL	47	–	–	93	104	23	106	1	–	–	–	–	–	–	–	–	–
VFFNGIILGPDGNVL	55	–	–	83	132	93	82	110	–	–	–	–	–	–	–	–	–
IILGPDGNVLIPEMQ	85	–	–	107	118	83	80	99	–	–	–	–	–	–	–	–	–
NLSGFSYMELKVGYI	61	–	–	–	115	–	94	–	90	83	68	–	–	–	–	–	–
TEAENYTNFVGYVTT	68	–	–	–	84	–	86	–	76	60	75	–	–	–	–	–	–
GVVTEAENYTNFVGY	86	–	–	–	111	–	76	–	90	71	83	–	–	–	–	–	–
MAGDPRYEESLHNPY	64	–	–	–	116	–	71	–	71	62	65	–	–	–	–	–	–
KAYTIFNKTLMEADA	101	–	–	104	123	92	76	137	–	–	–	–	–	–	–	–	–
NLHDFRSDEIEHLVV	83	–	–	86	113	62	97	90	–	–	–	–	–	–	–	–	–
ECLDALESIMTTKSV	91	–	–	110	112	90	103	96	–	–	–	–	–	–	–	–	–
PDVHNQVSGVDLGLP	–	–	–	–	–	–	–	–	–	–	–	106	115	129	104	107	106
TTKESLVIISPSVAD	78	–	–	–	121	–	91	–	108	71	114	–	–	–	–	–	–
NLVVEDEGCTNLSGF	75	–	–	–	119	–	85	–	74	92	106	–	–	–	–	–	–
ACRAAYNWKMAGDPR	82	–	–	–	116	–	93	–	110	93	138	–	–	–	–	–	–
TNSRGKRASKGSETC	68	–	–	–	108	–	89	–	104	104	107	–	–	–	–	–	–
TNLSGFSYMELKVGY	43	–	–	–	106	–	102	–	85	107	39	–	–	–	–	–	–
TSNETKWCPPDQLVN	97	–	–	96	111	57	88	134	–	–	–	–	–	–	–	–	–
NSRGKRASKGSETCG	92	–	–	–	100	–	63	–	71	60	107	–	–	–	–	–	–
ADPSTVFKDGDEAED	–	–	–	–	–	–	–	–	–	–	–	147	101	152	72	101	118
PIDIHHLSCPNNLVV	46	–	–	–	93	–	39	–	38	70	50	–	–	–	–	–	–
EADAHYKSVRTWNEI	58	–	–	63	97	76	79	78	–	–	–	–	–	–	–	–	–
TILDKLGPWSPIDIH	76	–	–	–	96	–	84	–	86	60	85	–	–	–	–	–	–
